Legend:
Human Melanocortin (MC4) = target: T1, Human Melanocortin (MC4) (Homo sapiens, UniProt P32245); assay: Radioligand binding, human melanocortin MC4 membranes, FlashPlate, [125I]-NDP-αMSH; conditions: compound at 10 μM; for A4: inhibition of radioligand binding, human melanocortin (MC4) / A4 radioligand binding, percentage inhibition: [125I]-NDP-αMSH
T1 construct: purchased Perkin Elmer Biosignal
In short: (§1)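 Cloned human receptor membranes were coated onto FlashPlate wells and incubated with radioligand and compound (added from a 0.5 mM DMSO daughter plate) for 1 hour at room temperature in the dark. Scintillation counting gave percent inhibition, with DMSO defining total and reference ligand defining non-specific binding.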

Human Melanocortin (MC3) = target: T2, Human Melanocortin (MC3) (Homo sapiens, UniProt P41968); assay: Radioligand binding, human melanocortin MC3 membranes, FlashPlate, [125I]-NDP-αMSH; conditions: compound at 10 μM; for A3: inhibition of radioligand binding, human melanocortin (MC3) / A3 radioligand binding, percentage inhibition: [125I]-NDP-αMSH
T2 construct: purchased Perkin Elmer Biosignal
T2 sequence (P41968 whole entry): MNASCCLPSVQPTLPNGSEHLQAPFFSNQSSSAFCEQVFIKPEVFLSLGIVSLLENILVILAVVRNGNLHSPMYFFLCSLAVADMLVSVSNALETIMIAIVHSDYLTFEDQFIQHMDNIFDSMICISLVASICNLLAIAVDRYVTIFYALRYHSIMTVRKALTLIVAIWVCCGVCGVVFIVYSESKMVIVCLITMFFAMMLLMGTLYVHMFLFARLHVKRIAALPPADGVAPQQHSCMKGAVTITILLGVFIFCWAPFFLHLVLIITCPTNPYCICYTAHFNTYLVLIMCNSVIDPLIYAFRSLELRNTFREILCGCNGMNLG
In short: as §1

Human κ-Opioid (KOP) = target: T3, Human κ-Opioid (KOP) (Homo sapiens, UniProt P41145); assay: Radioligand binding, human κ-opioid (KOP) membranes, filtration, [3H]-Diprenorphine; conditions: compound at 10 μM; for A2: inhibition of radioligand binding, human κ-opioid (KOP) / A2 radioligand binding, percentage inhibition: [3H]-Diprenorphine
T3 construct: purchased Perkin Elmer Biosignal
T3 sequence (P41145 whole entry): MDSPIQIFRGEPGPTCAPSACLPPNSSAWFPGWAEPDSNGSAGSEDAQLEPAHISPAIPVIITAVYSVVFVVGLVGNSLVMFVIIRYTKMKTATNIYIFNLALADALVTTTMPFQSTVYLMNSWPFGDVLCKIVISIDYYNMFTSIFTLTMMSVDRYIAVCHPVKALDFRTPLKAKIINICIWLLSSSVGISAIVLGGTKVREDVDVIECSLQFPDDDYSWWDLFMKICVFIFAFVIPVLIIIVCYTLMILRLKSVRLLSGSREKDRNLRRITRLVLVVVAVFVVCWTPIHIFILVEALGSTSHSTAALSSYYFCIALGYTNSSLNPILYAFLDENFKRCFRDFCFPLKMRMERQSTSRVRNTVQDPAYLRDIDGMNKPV
In short: (§2)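 Membranes from cloned human receptors were incubated with compound and radioligand for 1 hour at room temperature. Bound ligand was collected on 0.3% PEI-soaked filters, washed with cold 50 mM Tris-HCl pH 7.4, and counted by scintillation. Percent inhibition was computed against DMSO totals and reference-ligand nonspecific wells.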

Human δ-opioid (DOP) = target: T4, Human δ-opioid (DOP) (Homo sapiens, UniProt P41143); assay: Radioligand binding, human δ-opioid (DOP) membranes, FlashPlate, [3H]-Bremazocine; conditions: compound at 10 μM; for A1: inhibition of radioligand binding, human δ-opioid (DOP) / A1 radioligand binding, percentage inhibition: [3H]-Bremazocine
T4 construct: purchased Perkin Elmer Biosignal
T4 sequence (P41143 whole entry): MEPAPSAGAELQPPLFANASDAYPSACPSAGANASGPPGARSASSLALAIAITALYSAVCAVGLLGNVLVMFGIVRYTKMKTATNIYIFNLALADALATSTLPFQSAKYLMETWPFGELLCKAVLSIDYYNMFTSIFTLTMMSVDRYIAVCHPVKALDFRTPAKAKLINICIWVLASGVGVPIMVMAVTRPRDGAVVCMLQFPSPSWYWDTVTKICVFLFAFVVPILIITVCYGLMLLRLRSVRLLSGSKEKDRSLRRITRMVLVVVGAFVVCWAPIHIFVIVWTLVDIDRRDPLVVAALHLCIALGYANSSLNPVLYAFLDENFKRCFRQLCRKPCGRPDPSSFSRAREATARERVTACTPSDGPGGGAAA
In short: as §1

Human melanocortin (MC5) = target: T5, Human melanocortin (MC5) (Homo sapiens, UniProt P33032); assay: Radioligand binding, human melanocortin MC5 membranes, FlashPlate, [125I]-NDP-αMSH; conditions: compound at 10 μM; for A5: inhibition of radioligand binding, human melanocortin (MC5) / A5 radioligand binding, percentage inhibition: [125I]-NDP-αMSH
T5 construct: purchased Perkin Elmer Biosignal
T5 sequence (P33032 whole entry): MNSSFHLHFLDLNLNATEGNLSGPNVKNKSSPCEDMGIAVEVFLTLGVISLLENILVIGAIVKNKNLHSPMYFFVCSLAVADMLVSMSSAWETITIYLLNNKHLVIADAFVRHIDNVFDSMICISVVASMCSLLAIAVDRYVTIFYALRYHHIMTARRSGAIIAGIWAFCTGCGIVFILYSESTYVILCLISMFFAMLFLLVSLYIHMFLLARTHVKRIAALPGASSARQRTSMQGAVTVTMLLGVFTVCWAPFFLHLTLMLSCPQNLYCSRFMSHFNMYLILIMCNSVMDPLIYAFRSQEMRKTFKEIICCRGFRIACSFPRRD
In short: as §1

Human μ-opioid (MOP) = target: T6, Human μ-opioid (MOP) (Homo sapiens, UniProt P35372); assay: Radioligand binding, human μ-opioid (MOP) membranes, FlashPlate, [3H]-Naloxone; conditions: compound at 10 μM; for A7: inhibition of radioligand binding, human μ-opioid (MOP) / A7 radioligand binding, percentage inhibition: [3H]-Naloxone
T6 construct: purchased Perkin Elmer Biosignal
T6 sequence (P35372 whole entry): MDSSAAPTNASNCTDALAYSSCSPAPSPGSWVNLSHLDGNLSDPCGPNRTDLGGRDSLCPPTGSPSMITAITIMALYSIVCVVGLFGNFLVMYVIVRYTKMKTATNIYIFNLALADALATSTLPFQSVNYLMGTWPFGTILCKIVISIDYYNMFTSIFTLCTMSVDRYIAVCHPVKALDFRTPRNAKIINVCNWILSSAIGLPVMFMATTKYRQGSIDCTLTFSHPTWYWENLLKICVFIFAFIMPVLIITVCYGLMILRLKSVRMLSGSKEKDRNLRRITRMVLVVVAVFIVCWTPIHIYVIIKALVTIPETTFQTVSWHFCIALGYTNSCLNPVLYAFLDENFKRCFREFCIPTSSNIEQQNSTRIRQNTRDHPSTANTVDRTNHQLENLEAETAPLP
In short: as §1

Human neurokinin (NK1) = target: T7, Human neurokinin (NK1) (Homo sapiens, UniProt P25103); assay: Radioligand binding, human neurokinin NK1 membranes, filtration, [125I]-Substance P; conditions: compound at 10 μM; for A8: inhibition of radioligand binding, human neurokinin (NK1) / A8 radioligand binding, percentage inhibition: [125I]-Substance P
T7 construct: purchased Perkin Elmer Biosignal
T7 sequence (P25103 whole entry): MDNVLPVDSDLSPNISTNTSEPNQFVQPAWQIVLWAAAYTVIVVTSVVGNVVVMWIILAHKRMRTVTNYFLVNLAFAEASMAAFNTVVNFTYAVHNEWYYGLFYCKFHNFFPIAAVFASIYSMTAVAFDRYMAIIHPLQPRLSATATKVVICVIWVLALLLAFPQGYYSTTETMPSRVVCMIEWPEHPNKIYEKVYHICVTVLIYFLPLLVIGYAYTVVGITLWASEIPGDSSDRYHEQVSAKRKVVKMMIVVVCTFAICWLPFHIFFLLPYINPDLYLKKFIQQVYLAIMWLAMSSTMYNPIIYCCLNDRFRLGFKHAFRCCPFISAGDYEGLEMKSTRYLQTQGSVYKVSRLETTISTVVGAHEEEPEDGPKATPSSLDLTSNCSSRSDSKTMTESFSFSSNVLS
In short: as §2

[1] = target: T8, Human neuropeptide Y (NPY-Y1) (Homo sapiens, UniProt P25929); assay: Radioligand binding, human neuropeptide Y NPY-Y1 membranes, FlashPlate, [125I]-PYY; conditions: compound at 10 μM; for A9: inhibition of radioligand binding, human neuropeptide Y (NPY-Y1) / A9 radioligand binding, percentage inhibition: [125I]-PYY
T8 construct: purchased Perkin Elmer Biosignal
T8 sequence (P25929 1-384): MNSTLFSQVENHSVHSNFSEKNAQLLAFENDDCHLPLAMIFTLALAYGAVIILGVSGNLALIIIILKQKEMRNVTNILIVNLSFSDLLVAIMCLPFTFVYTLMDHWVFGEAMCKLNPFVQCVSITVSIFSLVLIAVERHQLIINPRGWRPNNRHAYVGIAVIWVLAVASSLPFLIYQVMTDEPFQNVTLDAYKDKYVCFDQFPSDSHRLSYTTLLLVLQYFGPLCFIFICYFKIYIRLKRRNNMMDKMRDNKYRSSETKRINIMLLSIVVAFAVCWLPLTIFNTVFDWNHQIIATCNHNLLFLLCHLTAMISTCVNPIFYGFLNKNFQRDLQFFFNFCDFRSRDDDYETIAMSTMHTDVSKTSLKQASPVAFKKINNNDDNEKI
In short: as §1

[2] = target: T9, Human melanin-concentrating hormone (MCH1) (Homo sapiens, UniProt Q99705); assay: Radioligand binding, human melanin-concentrating hormone MCH1 membranes, FlashPlate, [125I]-S36057; conditions: compound at 10 μM; for A6: inhibition of radioligand binding, human melanin-concentrating hormone (MCH1) / A6 radioligand binding, percentage inhibition: [125I]-S36057
T9 construct: purchased Perkin Elmer Biosignal
T9 sequence (Q99705 whole entry): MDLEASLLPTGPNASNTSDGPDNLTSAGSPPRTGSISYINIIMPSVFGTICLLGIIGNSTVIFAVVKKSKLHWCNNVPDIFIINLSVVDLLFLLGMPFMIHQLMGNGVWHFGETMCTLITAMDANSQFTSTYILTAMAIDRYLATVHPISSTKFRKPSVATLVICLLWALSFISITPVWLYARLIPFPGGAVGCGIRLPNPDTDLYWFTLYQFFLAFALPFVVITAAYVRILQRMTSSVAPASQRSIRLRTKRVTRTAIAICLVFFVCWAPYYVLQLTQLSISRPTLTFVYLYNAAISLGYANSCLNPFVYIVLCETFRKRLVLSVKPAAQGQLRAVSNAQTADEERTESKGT
In short: as §1

Human opioid (ORL1) = target: T10, Human opioid (ORL1) (Homo sapiens, UniProt P41146); assay: Radioligand binding, human opioid ORL1 membranes, FlashPlate, [125I]-Nociceptin; conditions: compound at 10 μM; for A10: inhibition of radioligand binding, human opioid (ORL1) / A10 radioligand binding, percentage inhibition: [125I]-Nociceptin
T10 construct: purchased Perkin Elmer Biosignal
T10 sequence (P41146 whole entry): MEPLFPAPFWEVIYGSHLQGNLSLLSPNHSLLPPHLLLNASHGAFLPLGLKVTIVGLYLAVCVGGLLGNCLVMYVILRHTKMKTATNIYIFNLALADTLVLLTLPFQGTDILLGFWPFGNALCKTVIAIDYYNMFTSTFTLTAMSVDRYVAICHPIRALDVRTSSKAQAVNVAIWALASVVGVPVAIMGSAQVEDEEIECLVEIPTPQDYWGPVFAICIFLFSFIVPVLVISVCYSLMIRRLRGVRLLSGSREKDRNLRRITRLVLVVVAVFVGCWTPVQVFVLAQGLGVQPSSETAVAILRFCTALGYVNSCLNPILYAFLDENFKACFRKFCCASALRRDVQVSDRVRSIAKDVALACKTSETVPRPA
In short: as §1

Mouse urotensin (mUR2) = target: T11, Mouse urotensin (mUR2) (Mus musculus, UniProt Q8VIH9); assay: Radioligand binding, mouse urotensin mUR2 membranes, FlashPlate, [125I]-Urotensin II; conditions: compound at 10 μM; for A11: inhibition of radioligand binding, mouse urotensin (mUR2) / A11 radioligand binding, percentage inhibition: [125I]-Urotensin II
T11 construct: purchased Perkin Elmer Biosignal
T11 sequence (Q8VIH9 1-385): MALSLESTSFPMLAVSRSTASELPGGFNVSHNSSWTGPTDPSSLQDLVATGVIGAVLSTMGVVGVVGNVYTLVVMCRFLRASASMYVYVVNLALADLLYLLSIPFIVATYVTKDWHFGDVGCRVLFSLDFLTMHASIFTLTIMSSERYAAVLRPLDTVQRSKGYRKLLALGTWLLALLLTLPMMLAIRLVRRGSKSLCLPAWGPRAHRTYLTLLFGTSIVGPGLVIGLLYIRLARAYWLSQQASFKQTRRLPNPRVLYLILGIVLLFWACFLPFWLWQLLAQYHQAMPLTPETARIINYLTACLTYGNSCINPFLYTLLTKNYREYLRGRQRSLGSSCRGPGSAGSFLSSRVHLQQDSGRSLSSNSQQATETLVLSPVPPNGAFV
In short: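 Cloned mouse urotensin (mUR2) receptor membranes from Perkin Elmer Biosignal were immobilized in FlashPlate microplates using a proprietary coating. Each well got 19.5 μl buffer, then 0.5 μl of DMSO, reference ligand, or compound. Adding 5 μl of [125I]-Urotensin II, diluted to 5× final concentration in binding buffer, started binding. Plates were sealed with TopSeal-A and incubated 1 hour at room temperature in the dark. Wells were counted for 30 seconds each on a TopCount after a 60-second delay, and percentage inhibition was calculated.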

T1 sequence (P32245 whole entry): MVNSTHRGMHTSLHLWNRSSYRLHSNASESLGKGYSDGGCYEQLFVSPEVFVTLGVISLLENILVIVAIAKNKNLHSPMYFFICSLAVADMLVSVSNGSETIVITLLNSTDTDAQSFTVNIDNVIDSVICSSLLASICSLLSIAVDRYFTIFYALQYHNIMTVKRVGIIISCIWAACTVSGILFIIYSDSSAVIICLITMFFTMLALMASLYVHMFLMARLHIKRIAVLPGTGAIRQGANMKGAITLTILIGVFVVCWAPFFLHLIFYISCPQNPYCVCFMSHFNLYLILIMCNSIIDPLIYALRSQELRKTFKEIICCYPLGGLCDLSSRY

Compound | A4: inhibition of radioligand binding, human melanocortin (MC4) (Human Melanocortin (MC4)) | A3: inhibition of radioligand binding, human melanocortin (MC3) (Human Melanocortin (MC3)) | A2: inhibition of radioligand binding, human κ-opioid (KOP) (Human κ-Opioid (KOP)) | A1: inhibition of radioligand binding, human δ-opioid (DOP) (Human δ-opioid (DOP)) | A5: inhibition of radioligand binding, human melanocortin (MC5) (Human melanocortin (MC5)) | A7: inhibition of radioligand binding, human μ-opioid (MOP) (Human μ-opioid (MOP)) | A8: inhibition of radioligand binding, human neurokinin (NK1) (Human neurokinin (NK1)) | A9: inhibition of radioligand binding, human neuropeptide Y (NPY-Y1) [1] | A6: inhibition of radioligand binding, human melanin-concentrating hormone (MCH1) [2] | A10: inhibition of radioligand binding, human opioid (ORL1) (Human opioid (ORL1)) | A11: inhibition of radioligand binding, mouse urotensin (mUR2) (Mouse urotensin (mUR2)) | A4 radioligand binding, percentage inhibition (Human Melanocortin (MC4)) | A3 radioligand binding, percentage inhibition (Human Melanocortin (MC3)) | A2 radioligand binding, percentage inhibition (Human κ-Opioid (KOP)) | A1 radioligand binding, percentage inhibition (Human δ-opioid (DOP)) | A5 radioligand binding, percentage inhibition (Human melanocortin (MC5)) | A7 radioligand binding, percentage inhibition (Human μ-opioid (MOP)) | A8 radioligand binding, percentage inhibition (Human neurokinin (NK1)) | A9 radioligand binding, percentage inhibition [1] | A6 radioligand binding, percentage inhibition [2] | also measured
N=C(N)NCCC(=O)N[C@H]1C(OCc2ccc(Cl)cc2)O[C@H](COCc2ccccc2)[C@@H](O)[C@@H]1OCc1ccc2ccccc2c1 (stereo partly drawn) [compound 530] | + (“+” indicates greater than 50% inhibition at 10 μM) | + (“+” indicates greater than 50% inhibition at 10 μM) | + (“+” indicates greater than 50% inhibition at 10 μM) | − (“−” indicates less than 50% inhibition at 10 μM) | + (“+” indicates greater than 50% inhibition at 10 μM) | + (“+” indicates greater than 50% inhibition at 10 μM) | + (“+” indicates greater than 50% inhibition at 10 μM) | − (“−” indicates less than 50% inhibition at 10 μM) | + (“+” indicates greater than 50% inhibition at 10 μM) | + (“+” indicates greater than 50% inhibition at 10 μM) | − (“−” indicates less than 50% inhibition at 10 μM) |  |  |  |  |  |  |  |  |  | 
CSC1OC(COCc2ccccc2)C(O)C(OCc2ccc3ccccc3c2)C1NC(=O)CNC(=N)N (stereo not drawn) [compound 302] | + (“+” indicates greater than 50% inhibition at 10 μM) | − (“−” indicates less than 50% inhibition at 10 μM) | − (“−” indicates less than 50% inhibition at 10 μM) | − (“−” indicates less than 50% inhibition at 10 μM) | + (“+” indicates greater than 50% inhibition at 10 μM) | − (“−” indicates less than 50% inhibition at 10 μM) | + (“+” indicates greater than 50% inhibition at 10 μM) | − (“−” indicates less than 50% inhibition at 10 μM) | − (“−” indicates less than 50% inhibition at 10 μM) | − (“−” indicates less than 50% inhibition at 10 μM) | − (“−” indicates less than 50% inhibition at 10 μM) |  |  |  |  |  |  |  |  |  | 
CO[C@H]1[C@H](O)[C@@H](COCc2ccc(-c3ccccc3)cc2)OC(OCc2ccc(-c3ccccc3)cc2)[C@@H]1NC(=O)CCNC(=N)N (stereo partly drawn) [compound 52] |  |  |  |  |  |  |  |  |  |  |  |  |  |  |  |  |  |  |  |  | A4 radioligand binding inhibition (Human Melanocortin (MC4); human melanocortin MC4 membranes): + (“+” indicates greater than 50% inhibition at 10 μM); A3 radioligand binding inhibition (Human Melanocortin (MC3); human melanocortin MC3 membranes): + (“+” indicates greater than 50% inhibition at 10 μM); A2 radioligand binding inhibition (Human κ-Opioid (KOP); human κ-opioid (KOP) membranes): − (“−” indicates less than 50% inhibition at 10 μM); A1 radioligand binding inhibition (Human δ-opioid (DOP); human δ-opioid (DOP) membranes): − (“−” indicates less than 50% inhibition at 10 μM); A5 radioligand binding inhibition (Human melanocortin (MC5); human melanocortin MC5 membranes): + (“+” indicates greater than 50% inhibition at 10 μM); A7 radioligand binding inhibition (Human μ-opioid (MOP); human μ-opioid (MOP) membranes): + (“+” indicates greater than 50% inhibition at 10 μM); A8 radioligand binding inhibition (Human neurokinin (NK1); human neurokinin NK1 membranes): + (“+” indicates greater than 50% inhibition at 10 μM); A9 radioligand binding inhibition ([1]; human NPY-Y1 membranes): − (“−” indicates less than 50% inhibition at 10 μM); A6 radioligand binding inhibition ([2]; human MCH1 membranes): + (“+” indicates greater than 50% inhibition at 10 μM); A10 radioligand binding inhibition (Human opioid (ORL1); human ORL1 membranes): + (“+” indicates greater than 50% inhibition at 10 μM); A11 radioligand binding inhibition (Mouse urotensin (mUR2); mouse urotensin mUR2 membranes): − (“−” indicates less than 50% inhibition at 10 μM)
COCC1OC(OCc2ccccc2)C(NC(=O)CCN)C(OCc2ccccc2)C1O (stereo not drawn) [compound 172] |  |  |  |  |  |  |  |  |  |  |  | − (“−” indicates less than 50% inhibition at 10 μM) | − (“−” indicates less than 50% inhibition at 10 μM) | − (“−” indicates less than 50% inhibition at 10 μM) | − (“−” indicates less than 50% inhibition at 10 μM) | − (“−” indicates less than 50% inhibition at 10 μM) | − (“−” indicates less than 50% inhibition at 10 μM) | + (“+” indicates greater than 50% inhibition at 10 μM) | − (“−” indicates less than 50% inhibition at 10 μM) | − (“−” indicates less than 50% inhibition at 10 μM) | A10 radioligand binding, percentage inhibition (Human opioid (ORL1)): − (“−” indicates less than 50% inhibition at 10 μM); A11 radioligand binding, percentage inhibition (Mouse urotensin (mUR2)): − (“−” indicates less than 50% inhibition at 10 μM)
CSC1OC(COCc2ccc(Cl)cc2)C(O)C(OCc2ccc3ccccc3c2)C1NC(=O)CCCN (stereo not drawn) [compound 310] | − (“−” indicates less than 50% inhibition at 10 μM) | − (“−” indicates less than 50% inhibition at 10 μM) | − (“−” indicates less than 50% inhibition at 10 μM) | − (“−” indicates less than 50% inhibition at 10 μM) | − (“−” indicates less than 50% inhibition at 10 μM) | − (“−” indicates less than 50% inhibition at 10 μM) | + (“+” indicates greater than 50% inhibition at 10 μM) | − (“−” indicates less than 50% inhibition at 10 μM) | − (“−” indicates less than 50% inhibition at 10 μM) | − (“−” indicates less than 50% inhibition at 10 μM) | − (“−” indicates less than 50% inhibition at 10 μM) |  |  |  |  |  |  |  |  |  | 
CO[C@H]1[C@H](O)[C@@H](COCc2ccccc2)OC(OCc2ccc(Cl)cc2)[C@@H]1NC(=O)CCNC(=N)N (stereo partly drawn) [compound 102] |  |  |  |  |  |  |  |  |  |  |  | − (“−” indicates less than 50% inhibition at 10 μM) | − (“−” indicates less than 50% inhibition at 10 μM) | − (“−” indicates less than 50% inhibition at 10 μM) | − (“−” indicates less than 50% inhibition at 10 μM) | + (“+” indicates greater than 50% inhibition at 10 μM) | − (“−” indicates less than 50% inhibition at 10 μM) | − (“−” indicates less than 50% inhibition at 10 μM) | − (“−” indicates less than 50% inhibition at 10 μM) | − (“−” indicates less than 50% inhibition at 10 μM) | A10 radioligand binding, percentage inhibition (Human opioid (ORL1)): − (“−” indicates less than 50% inhibition at 10 μM); A11 radioligand binding, percentage inhibition (Mouse urotensin (mUR2)): − (“−” indicates less than 50% inhibition at 10 μM)

— patent US20080009418A1, “Selective Inhibitors” (Alchemia LTD., priority 2004, published 2008)
